target: T1, recombinant glucosyltransferase domain of C. difficile Toxin B/TcdB (Clostridioides difficile, UniProt P18177); assay: biochemical
T1 construct: 6-His (C); purchased R&D Systems 6246-GT
T1 sequence (P18177 1-543): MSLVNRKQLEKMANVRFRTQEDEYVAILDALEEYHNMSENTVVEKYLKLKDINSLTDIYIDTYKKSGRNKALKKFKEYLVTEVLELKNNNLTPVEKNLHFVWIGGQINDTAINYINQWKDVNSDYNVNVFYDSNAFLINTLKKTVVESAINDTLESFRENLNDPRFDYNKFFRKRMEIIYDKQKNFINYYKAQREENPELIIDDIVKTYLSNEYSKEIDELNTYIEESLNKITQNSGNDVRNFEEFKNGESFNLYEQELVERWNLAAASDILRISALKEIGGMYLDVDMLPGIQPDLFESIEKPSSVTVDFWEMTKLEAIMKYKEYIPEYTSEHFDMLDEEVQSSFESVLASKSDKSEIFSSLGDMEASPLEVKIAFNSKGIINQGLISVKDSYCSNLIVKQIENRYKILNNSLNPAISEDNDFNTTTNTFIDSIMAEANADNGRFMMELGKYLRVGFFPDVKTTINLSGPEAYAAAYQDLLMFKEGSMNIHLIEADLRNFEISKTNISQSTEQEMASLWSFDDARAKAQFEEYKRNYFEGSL

Question: Which IC50 does the source give for `O=C(Nc1cnccn1)c1ccc(CN2C(=O)c3ccc(Cl)cc3NC(=O)[C@H]2Cc2ccccn2)cc1` [Example 5u, (R)-4-((8-chloro-2,5-dioxo-3-(pyridin-2-ylmethyl)-2,3-dihydro-1H-benzo[e][1,4]diazepin-4(5H)-yl)methyl)-N-(pyrazin-2-yl)benzamide] here?
Answer: < 100 nM

Question: How did the IC50 turn out when `COc1cnc(NC(=O)c2ccc(CN3C(=O)c4ccc(Cl)cc4NC(=O)[C@H]3Cc3ccccn3)cc2)cn1` [Example 5v, (R)-4-((8-chloro-2,5-dioxo-3-(pyridin-2-ylmethyl)-2,3-dihydro-1H-benzo[e][1,4]diazepin-4(5H)-yl)methyl)-N-(5-methoxypyrazin-2-yl)benzamide] was run?
Answer: < 100 nM

Question: With `COc1ccc(NC(=O)c2ccc(CN3C(=O)c4ccc(Cl)cc4NC(=O)C3Cc3cnccn3)cc2)nc1` (centres unmarked) [Example 5w, 4-((8-chloro-2,5-dioxo-3-(pyrazin-2-ylmethyl)-2,3-dihydro-1H-benzo[e][1,4]diazepin-4(5H)-yl)methyl)-N-(5-methoxypyridin-2-yl)benzamide] as the compound, how does the IC50 read?
Answer: < 100 nM

Question: For `Cc1ccc(NC(=O)c2ccc(CN3C(=O)c4ccc(Cl)cc4NC(=O)C3Cc3cnccn3)cc2)nc1` (centres unmarked) [Example 5x, 4-((8-chloro-2,5-dioxo-3-(pyrazin-2-ylmethyl)-2,3-dihydro-1H-benzo[e][1,4]diazepin-4(5H)-yl)methyl)-N-(5-methylpyridin-2-yl)benzamide], which IC50 is on record?
Answer: < 100 nM

Question: With `COc1cnc(NC(=O)c2ccc(CN3C(=O)c4ccc(Cl)cc4NC(=O)[C@H]3Cc3cnccn3)cc2)nc1` [Example 5y, 4-((8-chloro-2,5-dioxo-3-(pyrazin-2-ylmethyl)-2,3-dihydro-1H-benzo[e][1,4]diazepin-4(5H)-yl)methyl)-N-(5-methoxypyrimidin-2-yl)benzamide] as the compound, how does the IC50 read?
Answer: < 100 nM

Question: How did the IC50 turn out when `Cc1cnc(NC(=O)c2ccc(CN3C(=O)c4ccc(Cl)cc4NC(=O)[C@H]3Cc3cnccn3)cc2)nc1` [Example 5z, 4-((8-chloro-2,5-dioxo-3-(pyrazin-2-ylmethyl)-2,3-dihydro-1H-benzo[e][1,4]diazepin-4(5H)-yl)methyl)-N-(5-methylpyrimidin-2-yl)benzamide] was run?
Answer: < 100 nM

Question: How did the IC50 turn out when `O=C(Nc1ccccn1)c1ccc(CN2C(=O)c3ccc(Cl)cc3NC(=O)[C@H]2Cc2ccccn2)cc1F` [Example 6b, (R)-4-((8-chloro-2,5-dioxo-3-(pyridin-2-ylmethyl)-2,3-dihydro-1H-benzo[e][1,4]diazepin-4(5H)-yl)methyl)-2-fluoro-N-(pyridin-2-yl)benzamide] was run?
Answer: < 100 nM

Question: With `O=C(Nc1ccc(F)cn1)c1ccc(CN2C(=O)c3ccc(Cl)cc3NC(=O)[C@H]2Cc2ccccn2)cc1F` [Example 6c, (R)-4-((8-chloro-2,5-dioxo-3-(pyridin-2-ylmethyl)-2,3-dihydro-1H-benzo[e][1,4]diazepin-4(5H)-yl)methyl)-2-fluoro-N-(5-fluoropyridin-2-yl)benzamide] as the compound, how does the IC50 read?
Answer: < 100 nM

Question: `Cc1ccc(NC(=O)c2ccc(CN3C(=O)c4ccc(Cl)cc4NC(=O)[C@H]3Cc3ccccn3)cc2F)nc1` [Example 6d, (R)-4-((8-chloro-2,5-dioxo-3-(pyridin-2-ylmethyl)-2,3-dihydro-1H-benzo[e][1,4]diazepin-4(5H)-yl)methyl)-2-fluoro-N-(5-methylpyridin-2-yl)benzamide] was tested. Which IC50 did it give?
Answer: < 100 nM

Question: For `O=C1Nc2cc(Cl)ccc2C(=O)N(Cc2ccc(C(=O)N3CCc4cccnc43)c(F)c2)[C@@H]1Cc1ccccn1` [Example 6e, (R)-8-chloro-4-(4-(2,3-dihydro-1H-pyrrolo[2,3-b]pyridine-1-carbonyl)-3-fluorobenzyl)-3-(pyridin-2-ylmethyl)-3,4-dihydro-1H-benzo[e][1,4]diazepine-2,5-dione], which IC50 is on record?
Answer: 100 to 999 nM

Question: Which IC50 does the source give for `Cc1cnc2c(c1)CCN2C(=O)c1ccc(CN2C(=O)c3ccc(Cl)cc3NC(=O)[C@H]2Cc2ccccn2)cc1F` [Example 6f, (R)-8-chloro-4-(3-fluoro-4-(5-methyl-2,3-dihydro-1H-pyrrolo[2,3-b]pyridine-1-carbonyl)benzyl)-3-(pyridin-2-ylmethyl)-3,4-dihydro-1H-benzo[e][1,4]diazepine-2,5-dione] here?
Answer: < 100 nM
